The values below come from PMC11003491 (Journal of Enzyme Inhibition and Medicinal Chemistry, 2023).

Data set [1] has as its system A549 small lung cancer cell line. Briefly: MTT cell viability assay, A549. The format is cell-based. Conditions: Homo sapiens, A549, 48 h, read-out: A549 IC50, MTT, 48 h, mean of six values. (In general: Tetrazolium assays rely on reduction of a dye to a coloured formazan, in cell work by metabolically active cells.)
The next data set deals with EGFR-WT (Homo sapiens, UniProt P00533). In words: biochemical. The following applies: EGFR WT IC50, five concentrations.
Another data set concerns the target HER-2 (Homo sapiens, UniProt P04626). In words: HER-2 Kinase Assay Kit. Format: biochemical.
The subject of the next data set is MCF-7. The following applies: read-out: cytotoxicity against MCF-7 IC50; cited from earlier work.
Another data set deals with breast MCF7 cells. In words: Cell cycle analysis by flow cytometry. Format: cell-based, human. The following applies: MCF7, compound at IC50 concentration, 24 h.
A further data set relates to MCF7 breast cells. Briefly: Apoptosis by Annexin-V-FITC/PI flow cytometry. The format is cell-based, human. Conditions: MCF7, compound at IC50, 24 h. A general note: Flow cytometry measures light scatter and fluorescence of single cells or particles in a stream.

Sequence of EGFR-WT (P00533 25-1210): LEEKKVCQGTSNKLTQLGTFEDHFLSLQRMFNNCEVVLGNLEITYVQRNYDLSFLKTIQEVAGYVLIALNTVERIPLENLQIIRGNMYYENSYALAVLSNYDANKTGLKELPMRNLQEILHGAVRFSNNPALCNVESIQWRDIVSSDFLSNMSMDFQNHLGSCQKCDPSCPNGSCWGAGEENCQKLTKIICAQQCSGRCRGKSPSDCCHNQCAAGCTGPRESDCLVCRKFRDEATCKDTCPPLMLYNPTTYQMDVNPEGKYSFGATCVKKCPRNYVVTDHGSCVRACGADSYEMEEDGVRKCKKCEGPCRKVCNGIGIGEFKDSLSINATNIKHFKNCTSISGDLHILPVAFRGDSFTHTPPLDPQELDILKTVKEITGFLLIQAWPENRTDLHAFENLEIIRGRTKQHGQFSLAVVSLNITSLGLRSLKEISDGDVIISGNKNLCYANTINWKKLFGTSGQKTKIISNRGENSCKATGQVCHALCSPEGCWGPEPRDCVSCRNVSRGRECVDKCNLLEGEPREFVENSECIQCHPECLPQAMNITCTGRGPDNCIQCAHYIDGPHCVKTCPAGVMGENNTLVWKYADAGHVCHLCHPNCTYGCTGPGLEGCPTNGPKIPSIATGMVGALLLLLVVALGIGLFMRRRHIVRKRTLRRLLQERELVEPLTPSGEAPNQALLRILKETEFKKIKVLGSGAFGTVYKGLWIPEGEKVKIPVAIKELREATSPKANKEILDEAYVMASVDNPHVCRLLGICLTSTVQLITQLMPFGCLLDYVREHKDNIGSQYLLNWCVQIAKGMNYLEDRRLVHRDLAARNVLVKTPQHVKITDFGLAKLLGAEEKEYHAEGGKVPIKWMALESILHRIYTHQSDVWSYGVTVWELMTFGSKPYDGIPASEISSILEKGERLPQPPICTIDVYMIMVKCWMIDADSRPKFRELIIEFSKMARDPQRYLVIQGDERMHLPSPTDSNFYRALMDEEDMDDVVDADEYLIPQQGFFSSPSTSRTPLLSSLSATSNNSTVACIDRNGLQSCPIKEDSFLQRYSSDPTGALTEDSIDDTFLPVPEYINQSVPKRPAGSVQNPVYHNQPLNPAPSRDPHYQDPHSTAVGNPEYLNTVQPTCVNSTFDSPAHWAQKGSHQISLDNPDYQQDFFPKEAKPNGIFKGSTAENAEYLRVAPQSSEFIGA
Sequence of HER-2 (P04626 23-1255): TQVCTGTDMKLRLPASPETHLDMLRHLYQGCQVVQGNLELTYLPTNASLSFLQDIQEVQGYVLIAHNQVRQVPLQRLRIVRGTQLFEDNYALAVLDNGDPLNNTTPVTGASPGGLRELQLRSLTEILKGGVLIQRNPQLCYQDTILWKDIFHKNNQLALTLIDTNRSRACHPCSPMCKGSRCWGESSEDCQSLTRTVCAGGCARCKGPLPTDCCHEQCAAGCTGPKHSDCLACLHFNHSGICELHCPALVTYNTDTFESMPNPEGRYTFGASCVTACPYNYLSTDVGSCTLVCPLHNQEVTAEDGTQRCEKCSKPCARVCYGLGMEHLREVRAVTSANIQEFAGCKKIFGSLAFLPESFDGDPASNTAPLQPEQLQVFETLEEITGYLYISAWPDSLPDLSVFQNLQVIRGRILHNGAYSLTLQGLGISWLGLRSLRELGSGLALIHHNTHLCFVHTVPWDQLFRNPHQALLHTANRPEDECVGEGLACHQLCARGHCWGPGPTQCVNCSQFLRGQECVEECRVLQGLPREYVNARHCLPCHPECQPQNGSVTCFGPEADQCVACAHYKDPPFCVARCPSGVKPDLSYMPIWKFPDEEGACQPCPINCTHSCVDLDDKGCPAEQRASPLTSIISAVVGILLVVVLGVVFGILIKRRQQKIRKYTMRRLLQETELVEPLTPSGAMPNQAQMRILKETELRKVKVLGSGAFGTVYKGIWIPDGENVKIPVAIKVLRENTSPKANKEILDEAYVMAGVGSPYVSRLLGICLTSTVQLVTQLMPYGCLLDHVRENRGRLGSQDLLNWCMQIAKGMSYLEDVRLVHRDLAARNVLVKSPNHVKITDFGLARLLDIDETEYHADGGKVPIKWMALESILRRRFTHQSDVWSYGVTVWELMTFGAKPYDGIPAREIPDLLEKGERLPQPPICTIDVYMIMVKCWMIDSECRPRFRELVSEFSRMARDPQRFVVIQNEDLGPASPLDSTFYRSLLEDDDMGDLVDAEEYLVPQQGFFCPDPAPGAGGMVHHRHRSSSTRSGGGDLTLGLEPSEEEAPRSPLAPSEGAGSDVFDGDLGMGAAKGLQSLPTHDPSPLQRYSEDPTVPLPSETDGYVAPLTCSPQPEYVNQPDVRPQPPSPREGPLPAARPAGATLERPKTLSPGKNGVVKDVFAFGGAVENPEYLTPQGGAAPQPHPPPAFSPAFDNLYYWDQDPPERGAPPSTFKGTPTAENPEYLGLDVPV

With `CC(C)Cc1ccc(-c2nn(-c3ccc(S(C)(=O)=O)cc3)cc2/C=N/N=c2\[nH]c(-c3ccc([N+](=O)[O-])cc3)cs2)cc1` [Compound 18f, (E)-2-((E)-((3–(4-isobutylphenyl)-1–(4-(methylsulfonyl)phenyl)-1H-pyrazol-4-yl)methylene)hydrazono)-4–(4-nitrophenyl)-2,3-dihydrothiazole], the IC50 (as a rule, the concentration at which inhibition is half-maximal) in data set [1] was 1640 to 14300 nM; on EGFR-WT it was 190 nM; at HER-2, 201 nM.
On to `COc1ccc(-c2nn(-c3ccc(S(C)(=O)=O)cc3)cc2/C=N/N=c2\[nH]c(-c3ccc(Br)cc3)cs2)cc1` [Compound 18c, (E)-4–(4-bromophenyl)-2-((E)-((3–(4-methoxyphenyl)-1–(4-(methylsulfonyl)phenyl)-1H-pyrazol-4-yl)methylene)hydrazono)-2,3-dihydrothiazole], for which the IC50 worked out at 226 nM against EGFR-WT and 144 nM against HER-2.
Take `C#Cc1cccc(Nc2ncnc3cc(OCCOC)c(OCCOC)cc23)c1` [erlotinib]: the 50% inhibitory concentration (IC50) in the data set with MCF-7 is 20 nM.
`COc1ccc(-c2nn(-c3ccc(S(C)(=O)=O)cc3)cc2C=N/N=c2\[nH]c(-c3ccc([N+](=O)[O-])cc3)cs2)cc1` [Compound 18d, (E and Z)-2-((E)-((3–(4-methoxyphenyl)-1–(4-(methylsulfonyl)phenyl)-1H-pyrazol-4-yl)methylene)hydrazono)-4–(4-nitrophenyl)-2,3-dihydrothiazole] gave an IC50 against EGFR-WT of 388 nM. Also, it took 195 nM to reach half-maximal inhibition on HER-2 (IC50). Further, in the data set with breast MCF7 cells, the “%G0–G1” value was 62.43% and the “%G2-M” value turned out to be 4.39%. For the same compound, in the data set with MCF7 breast cells, the “Apoptosis Early” value was determined as 12.58%, the “Apoptosis Late” value was found to be 27.45% and the Necrosis worked out at 6.52%.
